Results taken from ChEMBL document CHEMBL6127144, “Optimization of a Piperidine CD4-Mimetic Scaffold Sensitizing HIV-1 Infected Cells to Antibody-Dependent Cellular Cytotoxicity” (ACS Med Chem Lett, 2024).
Calls of active or inactive are those of the source. The rule behind the calls is not given here.

What was measured:
CD4+ T cell [1] = test: Binding affinity to 17b Antibody in HIV-1 AD8 infected human primary CD4+ T cell by measuring median fluorescence intensity at 50 uM incubated for 48 hrs by Alexa Fluor 647 staining based flow cytometric analysis
CD4+ T cell [2] = test: Binding affinity to 17b Antibody in HIV-1 JRFL infected human primary CD4+ T cell by measuring median fluorescence intensity at 50 uM incubated for 48 hrs by Alexa Fluor 647 staining based flow cytometric analysis
CD4+ T cell [3] = test: Binding affinity to 17b Antibody in HIV-1 AD8 infected human primary CD4+ T cell at 50 uM incubated for 48 hrs by Alexa Fluor 647 staining based flow cytometric analysis
CD4+ T cell [4] = test: Binding affinity to 17b Antibody in HIV-1 JRFL infected human primary CD4+ T cell at 50 uM incubated for 48 hrs by Alexa Fluor 647 staining based flow cytometric analysis
[5] = system: Moloney murine leukemia virus; test: Antiviral activity against Moloney murine leukemia virus infected in human TZM-bl cells assessed as inhibition of viral growth incubated for 48 hrs by luminometer based neutralization assay; format: functional, organism-based
[6] = system: Human immunodeficiency virus 1; test: Antiviral activity against HIV-1 CH58TF infected in human TZM-bl cells assessed as inhibition of viral growth incubated for 48 hrs by luminometer based neutralization assay; format: functional, organism-based; conditions: Human immunodeficiency virus 1, CH58TF
[7] = system: Human immunodeficiency virus 1; test: Antiviral activity against HIV-1 JRFL infected in human TZM-bl cells assessed as inhibition of viral growth incubated for 48 hrs by luminometer based neutralization assay; format: functional, organism-based; conditions: Human immunodeficiency virus 1, JRFL
[8] = system: Human immunodeficiency virus 1; test: Antiviral activity against HIV-1 AD8 infected in human TZM-bl cells assessed as inhibition of viral growth incubated for 48 hrs by luminometer based neutralization assay; format: functional, organism-based; conditions: Human immunodeficiency virus 1, AD8, TZM-bl
[9] = system: Human immunodeficiency virus 1; test: Antiviral activity against HIV-1 CH58TF infected in human primary CD4+ T cell co-cultured with KHYG-1 cells assessed as inhibition of viral growth at 50 uM incubated for 4 to 6 hrs in presence of HIV+ plasma by flow cytometric analysis; format: functional, organism-based; conditions: time 4-6 hrs
CD4+ T cell [10] = test: Binding affinity to 17b Antibody in HIV-1 CH58TF infected human primary CD4+ T cell co-cultured with KHYG-1 cells assessed as antibody driven cell cytotoxicity at 50 uM incubated for 4 to 6 hrs by Alexa Fluor 647 staining based flow cytometric analysis; conditions: time 4-6 hrs
CD4+ T cell [11] = test: Binding affinity to 17b Antibody in HIV-1 AD8 infected human primary CD4+ T cell co-cultured with KHYG-1 cells assessed as antibody driven cell cytotoxicity at 50 uM incubated for 4 to 6 hrs by Alexa Fluor 647 staining based flow cytometric analysis; conditions: time 4-6 hrs
[12] = system: Human immunodeficiency virus 1; test: Antiviral activity against HIV-1 AD8 infected in human primary CD4+ T cell co-cultured with KHYG-1 cells assessed as inhibition of viral growth at 50 uM incubated for 4 to 6 hrs in presence of HIV+ plasma by flow cytometric analysis; format: functional, organism-based; conditions: time 4-6 hrs
TZM = test: Cytotoxicity against human TZM-bl cells upto 100 uM incubated for 48 hrs by cell-titer glo luminescent assay; format: toxicity, cell-based
CD4+ T cell [13] = test: Binding affinity to 17b Antibody in HIV-1 JRFL infected human primary CD4+ T cell co-cultured with KHYG-1 cells assessed as antibody driven cell cytotoxicity at 50 uM incubated for 4 to 6 hrs by Alexa Fluor 647 staining based flow cytometric analysis; conditions: time 4-6 hrs
[14] = system: Human immunodeficiency virus 1; test: Antiviral activity against HIV-1 JRFL infected in human primary CD4+ T cell co-cultured with KHYG-1 cells assessed as inhibition of viral growth at 50 uM incubated for 4 to 6 hrs in presence of HIV+ plasma by flow cytometric analysis; format: functional, organism-based; conditions: time 4-6 hrs

SMILES | Flu intensity (CD4+ T cell [1]) | Flu intensity (CD4+ T cell [2]) | IC50 [7] | IC50 [8] | further results
O=C(Nc1ccc(Cl)c(F)c1)[C@H]1CCCN(C(=O)N2CCN(CC(=O)N3CCCC3)CC2)C1 | 1.52 | 1.3 | – | – | –
O=C(Nc1ccc(Cl)c(F)c1)[C@H]1CCCN(C(=O)N2CCN(c3ccccn3)CC2)C1 | – | – | – | – | Activity (CD4+ T cell [3]): inactive; Activity (CD4+ T cell [4]): inactive
NCCNC(=O)N1CCC[C@H](C(=O)Nc2ccc(Cl)c(F)c2)C1 | – | – | > 100 µM | > 100 µM | IC50 [5]: > 100 µM; IC50 [6]: 1.77 µM; Activity [9]: Active; Activity (CD4+ T cell [10]): Active; Activity (CD4+ T cell [11]): inactive; Activity [12]: inactive
O=C(Nc1ccc(Cl)c(F)c1)[C@H]1CCCN(C(=O)N2CCN(c3ccccc3)CC2)C1 | – | – | – | – | Activity (CD4+ T cell [3]): inactive; Activity (CD4+ T cell [4]): inactive
NC(=O)[C@@H]1CCCN1C(=O)N1CCC[C@H](C(=O)Nc2ccc(Cl)c(F)c2)C1 | 1.23 | 1.01 | – | – | –
N[C@@H](Cc1ccc(O)cc1)C(=O)N1CCN(C(=O)N2CCC[C@H](C(=O)Nc3ccc(Cl)c(F)c3)C2)CC1 | 2.48 | 2.19 | 28 µM | 2.18 µM | –
O=C(Nc1ccc(Cl)c(F)c1)[C@H]1CCCN(C(=O)c2ccncc2)C1 | 1.25 | 0.95 | – | – | –
C[C@H](N)C(=O)N1CCN(C(=O)N2CCC[C@H](C(=O)Nc3ccc(Cl)c(F)c3)C2)CC1 | 2.53 | 2.02 | 5.62 µM | 1.83 µM | –
O=C(Nc1ccc(Cl)c(F)c1)[C@H]1CCCN(C(=O)N2CCCCC2)C1 | 1.19 | 0.96 | – | – | –
COCCN1CCN(C(=O)N2CCC[C@H](C(=O)Nc3ccc(Cl)c(F)c3)C2)CC1 | 1.28 | 1.43 | – | – | –
N=C(N)N1CCC[C@@H]1C(=O)N1CCN(C(=O)N2C[C@H](CO)C[C@H](C(=O)Nc3ccc(Cl)c(F)c3)C2)CC1 | – | – | – | > 100 µM | –
N=C(N)N1CCC[C@@H]1C(=O)N1CCN(C(=O)N2CCC[C@H](C(=O)Nc3ccc(Cl)c(F)c3)C2)CC1 | – | – | 8.28 µM | 2.92 µM | IC50 [5]: > 100 µM; IC50 [6]: 0.14 µM; Activity (TZM): Non-Toxic; Activity [9]: Active; Activity (CD4+ T cell [10]): Active; Activity (CD4+ T cell [13]): Active; Activity [14]: inactive; Activity (CD4+ T cell [11]): Active; Activity [12]: Active
NC(=O)C[C@H](N)C(=O)N1CCN(C(=O)N2CCC[C@H](C(=O)Nc3ccc(Cl)c(F)c3)C2)CC1 | 2.14 | 1.53 | 24.6 µM | 6.21 µM | –
CNCc1ccc2c(c1)C[C@H](CNC(=N)N)[C@H]2NC(=O)C(=O)Nc1ccc(Cl)c(F)c1 | – | – | 4.6 µM | 0.95 µM | IC50 [5]: > 100 µM; IC50 [6]: 0.07 µM; Activity [9]: Active; Activity (CD4+ T cell [10]): Active
O=C(Nc1ccc(Cl)c(F)c1)[C@H]1CCCN(C(=O)N2CCOCC2)C1 | 1.49 | 1.05 | – | – | –
O=C(Nc1ccc(Cl)c(F)c1)[C@H]1CCCN(C(=O)N(CCO)CCO)C1 | 1.27 | 1.04 | – | – | –
CCN1CCN(C(=O)N2CCC[C@H](C(=O)Nc3ccc(Cl)c(F)c3)C2)CC1 | 1.23 | 1.36 | – | – | –
O=C(Nc1ccc(Cl)c(F)c1)[C@H]1CCCN(C(=O)N2CCC[C@H]2CO)C1 | 1.26 | 1.11 | – | – | –
N=C(N)NCC(=O)N1CCN(C(=O)N2CCC[C@H](C(=O)Nc3ccc(Cl)c(F)c3)C2)CC1 | – | – | 10.7 µM | 1.99 µM | IC50 [5]: > 100 µM; IC50 [6]: 0.15 µM; Activity (TZM): Non-Toxic; Activity [9]: Active; Activity (CD4+ T cell [10]): Active; Activity (CD4+ T cell [13]): Active; Activity [14]: inactive; Activity (CD4+ T cell [11]): Active
O=C(Nc1ccc(Cl)c(F)c1)[C@H]1CCCN(C(=O)N2CCN(c3cccc(C(F)(F)F)c3)CC2)C1 | – | – | – | – | Activity (CD4+ T cell [3]): inactive; Activity (CD4+ T cell [4]): inactive
CN1CCN(C(=O)N2CCC[C@H](C(=O)Nc3ccc(Cl)c(F)c3)C2)CC1 | 1.5 | 1.14 | – | – | –
C[C@@H](O)[C@H](N)C(=O)N1CCN(C(=O)N2CCC[C@H](C(=O)Nc3ccc(Cl)c(F)c3)C2)CC1 | inactive | inactive | 13.7 µM | 1.55 µM | –
CC(=O)NCSC[C@H](N)C(=O)N1CCN(C(=O)N2CCC[C@H](C(=O)Nc3ccc(Cl)c(F)c3)C2)CC1 | 1.75 | 1.55 | 40 µM | 1.86 µM | Activity (CD4+ T cell [11]): Active
N=C(N)NCCC[C@H](N)C(=O)N1CCN(C(=O)N2CCC[C@H](C(=O)Nc3ccc(Cl)c(F)c3)C2)CC1 | 2.23 | 1.61 | ≥ 72.6 µM | 1.27 µM | IC50 [5]: > 100 µM; IC50 [6]: 0.22 µM; Activity (TZM): Non-Toxic; Activity [9]: Active; Activity (CD4+ T cell [10]): Active; Activity (CD4+ T cell [11]): Active
N=C(N)NCC(=O)N1CCN(C(=O)N2C[C@H](CO)C[C@H](C(=O)Nc3ccc(Cl)c(F)c3)C2)CC1 | – | – | – | 38.6 µM | –
O=C(Nc1ccc(Cl)c(F)c1)[C@H]1CCCN(C(=O)N2CCN(c3ncccn3)CC2)C1 | – | – | – | – | Activity (CD4+ T cell [3]): inactive; Activity (CD4+ T cell [4]): inactive
CN(C)CCCN1CCN(C(=O)N2CCC[C@H](C(=O)Nc3ccc(Cl)c(F)c3)C2)CC1 | 1.39 | 1.42 | – | – | –
O=C(Nc1ccc(Cl)c(F)c1)[C@H]1CCCN(C(=O)c2c[nH]cn2)C1 | 1.07 | 0.93 | – | – | –
